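GI50 is the concentration that inhibits growth by half. Definition used: TGI = concentration required for complete inhibition of growth.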
Assays:
Assay in all cases: NCI anticancer screen, dose series, 384-well format
[1] = test system: KM12 colon
[2] = test system: PC-3 prostate
[3] = test system: UO-31 renal
[4] = test system: MDA-MB-468 breast
[5] = test system: HOP-62 NSCLC
[6] = test system: NCI-H226 lung
[7] = test system: SF-295 CNS
[8] = test system: SNB-75 CNS
[9] = test system: A498 renal
[10] = test system: MOLT-4 leukemia
[11] = test system: OVCAR-3 ovarian
[12] = test system: SF-539 CNS
[13] = test system: T-47D breast

CS(=O)(=O)CCNCc1ccc(-c2ccc3ncnc(Nc4ccc(OCc5cccc(F)c5)c(Cl)c4)c3c2)o1
GI50 [1]: 2210 nM | TGI [1]: 3720 nM | GI50 [2]: 1750 nM | TGI [2]: 3280 nM | GI50 [3]: 1090 nM | TGI [3]: 3890 nM | GI50 [4]: 45.2 nM | TGI [4]: 260 nM | GI50 [5]: 2300 nM | TGI [5]: 4950 nM | GI50 [6]: 2120 nM | TGI [6]: 4750 nM | GI50 [7]: 1960 nM | TGI [7]: 3850 nM | GI50 [8]: 2280 nM | TGI [8]: 5280 nM | GI50 [9]: 1260 nM | TGI [9]: 2520 nM | GI50 [10]: 1490 nM | TGI [10]: 2820 nM | GI50 [11]: 1580 nM | TGI [11]: 2960 nM | GI50 [12]: 1820 nM | TGI [12]: 3220 nM | GI50 [13]: 605 nM | TGI [13]: 5690 nM
